Experimental findings from ChEMBL document CHEMBL5512632, “Unlocking the potential of 1,4-naphthoquinones: A comprehensive review of their anticancer properties” (Eur J Med Chem, 2024) are described below.

pIC50: −log10 of the molar value.

One data set has as its system SiHa. Put plainly: Antiproliferative activity against human SiHa cells assessed as inhibition of cell growth by crystal violet staining based spectrophotometric assay. The class given is functional.
A further data set deals with C-33-A. The data set is described as follows: Antiproliferative activity against human C-33-A cells assessed as inhibition of cell growth by crystal violet staining based spectrophotometric assay. The class given is functional.
A short description of data set [1]: Antiproliferative activity against human CaLo cells assessed as inhibition of cell growth by crystal violet staining based spectrophotometric assay. It counts as functional.
Data set [2] deals with MDA-MB-231. Put plainly: Cytotoxicity against human MDA-MB-231 cells assessed as inhibition of cell growth incubated for 72 hrs by resazurin assay. The class given is functional, cell-based. The settings on record: MDA-MB-231, 72 h. (In general: Alamar Blue is a resazurin reagent that responds to reducing activity.)
Data set [3] concerns HCT-116. Put plainly: Cytotoxicity against human HCT-116 cells assessed as inhibition of cell growth incubated for 72 hrs by resazurin assay. It counts as functional, cell-based. The settings on record: HCT-116, 72 h.
A further data set relates to Huh-7. Put plainly: Cytotoxicity against human Huh-7 cells assessed as inhibition of cell growth incubated for 72 hrs by resazurin assay. The class given is functional, cell-based. The settings on record: Huh-7, 72 h.
Another data set relates to U-87 MG. Put plainly: Cytotoxicity against human U87 cells assessed as inhibition of cell growth incubated for 72 hrs by resazurin assay. The class given is functional, cell-based, U-87MG ATCC.
For data set [4], the system named is MCF7. The data set is described as follows: Cytotoxicity against human MCF7 cells assessed as inhibition of cell growth incubated for 72 hrs by resazurin assay. It counts as functional, cell-based. The settings on record: MCF7, 72 h.
The test system of a further data set is B16-F10. The data set is described as follows: Antiproliferative activity against mouse B16-F10 cells assessed as inhibition of cell growth incubated for 72 hrs by Sulforhodamine B assay. The settings on record: B16-F10, 72 h. The class given is functional, cell-based. On the technique in general: Sulforhodamine B stains cellular protein and so reports cell mass.

Data set [5] can be described thus: Antiproliferative activity against human HGF cells assessed as inhibition of cell growth incubated for 72 hrs by Sulforhodamine B assay. The class given is toxicity, cell-based.
Data set [6] has as its system A549. The data set is described as follows: Antiproliferative activity against human A549 cells assessed as inhibition of cell growth incubated for 72 hrs by Sulforhodamine B assay. The class given is functional, cell-based. The settings on record: A549, 72 h.
In data set [7] the test system is MCF7. Put plainly: Antiproliferative activity against human MCF7 cells assessed as inhibition of cell growth incubated for 72 hrs by Sulforhodamine B assay. The settings on record: MCF7, 72 h. The class given is functional, cell-based.
The next data set relates to C6. Put plainly: Antiproliferative activity against rat C6 cells assessed as inhibition of cell growth incubated for 72 hrs by Sulforhodamine B assay. The settings on record: C6, 72 h. The class given is functional, cell-based.
Data set [8] deals with MDA-MB-231. Put plainly: Antiproliferative activity against human MDA-MB-231 cells assessed as inhibition of cell growth incubated for 72 hrs by Sulforhodamine B assay. The class given is functional, cell-based. The settings on record: MDA-MB-231, 72 h.
In a further data set the test system is SK-BR-3. The data set is described as follows: Antiproliferative activity against human SK-BR-3 cells assessed as inhibition of cell growth incubated for 72 hrs by Sulforhodamine B assay. The class given is functional, cell-based. The settings on record: SK-BR-3, 72 h.
Data set [9] concerns MDA-MB-231. Put plainly: Growth inhibition of human MDA-MB-231 cells incubated for 48 hrs by Sulforhodamine B reagent based spectrophotometric assay. It counts as functional.
Data set [10] deals with MCF7. The data set is described as follows: Growth inhibition of human MCF7 cells incubated for 48 hrs by Sulforhodamine B reagent based spectrophotometric assay. It counts as functional.
Data set [11] deals with MCF7. Put plainly: Antiproliferative activity against human MCF7 cells assessed as inhibition of cell growth incubated for 48 hrs by MTT reagent based spectrophotometric analysis. The class given is functional. The settings on record: MCF7, 48 h.
Another data set has as its system HepG2. Put plainly: Antiproliferative activity against human HepG2 cells assessed as inhibition of cell growth incubated for 48 hrs by MTT reagent based spectrophotometric analysis. It counts as functional. The settings on record: HepG2, 48 h. For orientation: Tetrazolium dyes change colour on reduction, which living cells bring about.
In the next data set the test system is Caco-2. The data set is described as follows: Antiproliferative activity against human Caco-2 cells assessed as inhibition of cell growth incubated for 72 hrs by WST-1 assay. The settings on record: Caco-2, 72 h. It counts as functional, cell-based.
A further data set deals with COLO-829. The data set is described as follows: Antiproliferative activity against human COLO-829 cells assessed as inhibition of cell growth incubated for 72 hrs by WST-1 assay. It counts as functional, cell-based. The settings on record: COLO-829, 72 h.
Data set [12] deals with MDA-MB-231. The data set is described as follows: Antiproliferative activity against human MDA-MB-231 cells assessed as inhibition of cell growth incubated for 72 hrs by WST-1 assay. It counts as functional, cell-based. The settings on record: MDA-MB-231, 72 h.
Data set [13] deals with MCF7. The data set is described as follows: Antiproliferative activity against human MCF7 cells assessed as inhibition of cell growth incubated for 72 hrs by WST-1 assay. The class given is functional, cell-based. The settings on record: MCF7, 72 h.
The subject of data set [14] is A549. The data set is described as follows: Antiproliferative activity against human A549 cells assessed as inhibition of cell growth incubated for 72 hrs by WST-1 assay. It counts as functional, cell-based. The settings on record: A549, 72 h.
A further data set concerns T47D. The data set is described as follows: Antiproliferative activity against human T47D cells assessed as inhibition of cell growth incubated for 72 hrs by WST-1 assay. The class given is functional, cell-based.
The subject of a further data set is B16. Put plainly: Antiproliferative activity against mouse B16 cells assessed as inhibition of cell growth incubated for 48 hrs by MTS assay. The class given is functional, cell-based. The settings on record: B16, 48 h.
The test system of data set [15] is HCT-116. Put plainly: Antiproliferative activity against human HCT-116 cells assessed as inhibition of cell growth incubated for 48 hrs by MTS assay. The settings on record: HCT-116, 48 h. It counts as functional, cell-based.
Data set [16] relates to MCF7. The data set is described as follows: Antiproliferative activity against human MCF7 cells assessed as inhibition of cell growth incubated for 48 hrs by MTS assay. The class given is functional, cell-based. The settings on record: MCF7, 48 h.
Data set [17] concerns HeLa. The data set is described as follows: Antiproliferative activity against human HeLa cells assessed as inhibition of cell growth incubated for 48 hrs by MTS assay. It counts as functional, cell-based.
Another data set has as its system NCI-H1299. Put plainly: Antiproliferative activity against human NCI-H1299 cells assessed as inhibition of cell growth incubated for 48 hrs by MTS assay. The class given is functional, cell-based. The settings on record: NCI-H1299, 48 h.
Another data set relates to SH-SY5Y. The data set is described as follows: Antiproliferative activity against human SH-SY5Y cells assessed as inhibition of cell growth incubated for 48 hrs by MTT assay. It counts as functional, cell-based.
For data set [18], the system named is HeLa. Put plainly: Antiproliferative activity against human HeLa cells assessed as inhibition of cell growth incubated for 48 hrs by MTT assay. The class given is functional, cell-based.
The next data set has as its system U2OS. Put plainly: Antiproliferative activity against human U2OS cells assessed as inhibition of cell growth incubated for 48 hrs by MTT assay. It counts as functional, cell-based.
In a further data set the test system is SAOS-2. The data set is described as follows: Antiproliferative activity against human SAOS-2 cells assessed as inhibition of cell growth incubated for 48 hrs by MTT assay. It counts as functional, cell-based. The settings on record: SAOS-2, 48 h.
Data set [19] concerns HCT-116. The data set is described as follows: Antiproliferative activity against human HCT-116 cells assessed as inhibition of cell growth by MTT assay. It counts as functional, cell-based.
Another data set concerns A2780. The data set is described as follows: Antiproliferative activity against human A2780 cells assessed as inhibition of cell growth incubated for 48 hrs by MTT reagent based spectrophotometric analysis. It counts as functional. The settings on record: A2780, 48 h.
The subject of the next data set is SK-OV-3. The data set is described as follows: Antiproliferative activity against human SK-OV-3 cells assessed as inhibition of cell growth incubated for 48 hrs by MTT reagent based spectrophotometric analysis. It counts as functional. The settings on record: SK-OV-3, 48 h.
A further data set deals with OVCAR-3. Put plainly: Antiproliferative activity against human OVCAR-3 cells assessed as inhibition of cell growth incubated for 48 hrs by MTT reagent based spectrophotometric analysis. The settings on record: OVCAR-3, 48 h. It counts as functional.
A further data set has as its system K562. The data set is described as follows: Antiproliferative activity against human K562 cells assessed as inhibition of cell growth incubated for 72 hrs by MTT assay. The settings on record: K562, 72 h. The class given is functional, cell-based.
In data set [20] the test system is MDA-MB-231. The data set is described as follows: Antiproliferative activity against human MDA-MB-231 cells assessed as inhibition of cell growth incubated for 72 hrs by trypan blue exclusion assay. The settings on record: MDA-MB-231, 72 h. It counts as functional, cell-based.

Take `O=C1C(Cl)=C(NC(Cc2ccc(O)cc2)C(=O)O)C(=O)c2ccccc21` (stereo not given): the values for the negative logarithm of the IC50 (pIC50) (in the data set with SiHa; in the data set on C-33-A; in data set [1]) were 5.17, 9.00 and 5.54, respectively.
With `CCOC(=O)C(NC1=C(Cl)C(=O)c2ccccc2C1=O)C(C)=O` (stereo not given), the pIC50 (as a rule, the negative decadic logarithm of the IC50, by convention in mol/L) in the data set on MDA-MB-231 [2] was 4.80; in the data set with HCT-116 [3], 4.86; in the data set with Huh-7 it was 4.74; with U-87 MG it was 4.72; in the data set with MCF7 [4], 4.61.
As for `CC(=O)OC[C@H]1O[C@H](n2cc(COC3=CC(=O)c4ccccc4C3=O)nn2)[C@H](OC(C)=O)[C@H](OC(C)=O)[C@H]1OC(C)=O`, the negative logarithm of the IC50 (pIC50) was 5.28 with B16-F10; 5.07 in the data set on A549 [6]; 5.48 in the data set with MCF7 [7]; 4.83 with C6; 4.85 in the data set on MDA-MB-231 [8]; 6.11 with SK-BR-3. Besides, the IC50 – broadly, the concentration needed to halve the response being measured – at 72 h in data set [5] came out at 17.7 µM.
Consider `O=C1C(Cl)=C(N2CCN(Cc3ccc4c(c3)OCO4)CC2)C(=O)c2ccccc21`, for which the GI50 (commonly the concentration at which growth is held to half of that of the control) in the data set with MDA-MB-231 [9] was 5 µM; in the data set with MCF7 [10], 5.8 µM.
Take `O=C1C(Cl)=C(NNc2nnc3n2N=C(c2ccc(Cl)cc2)CS3)C(=O)c2ccccc21`: the negative logarithm of the IC50 (pIC50) was 5.07 with MCF7 [11] and 7.15 in the data set on HepG2.
With `C=C(C)[C@@H]1CC[C@]2(COC(=O)c3cn(CCCOC4=C(Cl)C(=O)c5ccccc5C4=O)nn3)CC[C@]3(C)[C@H](CC[C@@H]4[C@@]5(C)CC[C@H](O)C(C)(C)[C@@H]5CC[C@]43C)[C@@H]12`, the pIC50 in the data set on Caco-2 was 4.91; with COLO-829, 4.90; in the data set with MDA-MB-231 [12], 5.00; in the data set with MCF7 [13], 4.93; in the data set with A549 [14], 5.73; with T47D, 5.62.
`CN(C)C(=S)SCC1=C(CSC(=S)N(C)C)C(=O)c2ccccc2C1=O`: the negative logarithm of the IC50 (pIC50) in the data set on B16 was 6.98; in the data set on HCT-116 [15], 7.06; with MCF7 [16], 7.16; in the data set with HeLa [17], 6.91; in the data set on NCI-H1299 it was 6.96.
Turning to `CC(=O)N[C@@H](CSC1=CC(=O)c2ccccc2C1=O)C(=O)O`, the pIC50 is 6.06 in the data set with SH-SY5Y, 6.27 in the data set with HeLa [18], 5.74 with U2OS and 5.78 in the data set on SAOS-2.
With `O=C1C=C(Sc2ccc([N+](=O)[O-])cc2)C(=O)c2ccccc21`, the pIC50 in the data set on HCT-116 [19] is 5.27.
With `O=C1C=C(N(Cc2ccccn2)Cc2ccccn2)C(=O)c2ccccc21`, the negative logarithm of the IC50 (pIC50) was 5.25 with A2780, 5.55 in the data set on SK-OV-3 and 5.17 with OVCAR-3.
On to `O=C1C=C(Nc2ccc(S(=O)(=O)c3ccc(NC(=S)N4CCCCC4)cc3)cc2)C(=O)c2ccccc21`, for which the pIC50 in the data set with K562 was 5.24.
Take `COC1=CC(=O)c2ccccc2C1=O` [2-Methoxy-1,4-naphthoquinone]: in the data set on MDA-MB-231 [20], the negative-log IC50 (pIC50) was 5.12.
